Results from ChEMBL document CHEMBL1155576, “Bioactive carotanes from Trichoderma virens” (2000).
Calls of active or inactive are those of the source. The calls are words filed in the database; no cut-off is given here.

Key:
Assay type in all cases: functional
Triticum aestivum [1] = experiment: Inhibition of etiolated wheat coleoptile growth at 10^-3 M relative to control
Triticum aestivum [2] = experiment: Inhibition of etiolated wheat coleoptile growth at 10^-5 M relative to control
Triticum aestivum [3] = experiment: Inhibition of etiolated wheat coleoptile growth at 10^-4 M relative to control

For `CC(C)(O)[C@@]1(O)[C@@H]2CCC(CO)=CC[C@@]2(C)C[C@@H]1O`, the Activity (Triticum aestivum [1]) was “inactive”, the Activity (Triticum aestivum [2]) was “inactive” and the Activity (Triticum aestivum [3]) was “inactive”.
`CC(C)[C@@]1(O)[C@@H]2CC[C@@]3(C)O[C@H]3C[C@@]2(C)C[C@@H]1O` [TRICHOCARANE A] gave an inhibition at 100 µM (Triticum aestivum [3]) of 40%.
With `CC(C)[C@@]1(O)[C@@H]2CCC(CO)=CC[C@@]2(C)C[C@@H]1O` [TRICHOCARANE B] the inhibition at 10 µM (Triticum aestivum [2]) was 19% and the inhibition at 100 µM (Triticum aestivum [3]) was 40%.
With `CC(C)[C@@]1(O)[C@@H]2CCC(CO)CC[C@@]2(C)C[C@@H]1O` (some centres not stated) [TRICHOCARANE C] the inhibition at 1000 µM (Triticum aestivum [1]) was 86%.
